Tests used:
Type in all cases: in vivo
[1] = test system: soybean (Glycine max L., var. Pella 86, SOY); assay: Post-emerge greenhouse test, crop damage rating; design: key to crop damage rating SOY: 0-100 scale: 0 = no damage, 100 = complete death of all plants; details: 14 days after application, scale 0-100
Outline: (§1)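 Plants at the 2-3 leaf stage, sown 8-21 days earlier, were track-sprayed post-emergence with compound in acetone plus 0.25% v/v non-ionic surfactant at 63-1000 g ai/ha (187 l/ha). Damage was rated at 14 days on a 0-100 scale (0 none, 100 all plants dead), for both crop injury and weed control.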

[2] = test system: upland rice (Oryza sp., var.Tebonnet, RICE); assay: Post-emerge greenhouse test, crop damage rating; details: 14 days after application, scale 0-100
Outline: as §1

[3] = test system: field corn (Zea mays L., var. Dekalb 535, CORN); assay: Post-emerge greenhouse test, crop damage rating; details: 14 days after application, scale 0-100
Outline: as §1

[4] = test system: upland rice (Oryza sp., var.Tebonnet, RICE); assay: Pre-emerge greenhouse test, crop damage rating; details: 14 days after application, rating scale 0-100
Outline: (§2)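 Seeds sown in sandy loam one day before track-sprayer application of acetone solutions at 125–1000 g ai/ha (187 l/ha), then surface-watered to incorporate and bottom-watered. Injury scored visually at 14 days on a 0–100 scale (0 no damage, 100 complete death).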

[5] = test system: field corn (Zea mays L., var. Dekalb 535, CORN); assay: Pre-emerge greenhouse test, crop damage rating; details: 14 days after application, rating scale 0-100
Outline: as §2

[6] = test system: green foxtail (Setaria viridis, SETVI); assay: Post-emerge greenhouse herbicide test, phytotoxicity rating; details: 14 days after application, scale 0-100
Outline: as §1

[7] = test system: ivyleaf morningglory (Ipomoea hederacea, IPOHE); assay: as above; details: 14 days after application, scale 0-100
Outline: as §1

[8] = test system: barnyardgrass (Echinochloa crusgalli, ECHCG); assay: as above; details: 14 days after application, scale 0-100
Outline: as §1

[9] = test system: lambsquarters (Chenopodium album, CHEAL); assay: as above; details: 14 days after application, scale 0-100
Outline: as §1

[10] = test system: redroot pigweed (Amaranthus retroflexus, AMARE); assay: as above; details: 14 days after application, scale 0-100
Outline: as §1

[11] = test system: Johnsongrass (Sorghum halepense, SORHA); assay: as above; details: 14 days after application, scale 0-100
Outline: as §1

[12] = test system: velvetleaf (Abutilon theophrasti, ABUTH); assay: as above; details: 14 days after application, scale 0-100
Outline: as §1

[13] = test system: large crabgrass (Digitaria sanguinalis, DIGSA); assay: as above; details: 14 days after application, scale 0-100
Outline: as §1

[14] = test system: soybean (Glycine max L., var. Pella 86, SOY); assay: Pre-emerge greenhouse test, crop damage rating; design: key to SOY crop damage rating: 0 = no damage, 100 = complete death of all plants; details: 14 days after application, rating scale 0-100
Outline: as §2

[15] = test system: green foxtail (Setaria viridis, SETVI); assay: Pre-emerge greenhouse herbicide test, phytotoxicity rating; details: 14 days after application, rating scale 0-100
Outline: as §2

[16] = test system: sicklepod (Cassia obtusifolia, CASOB); assay: as above; details: 14 days after application, rating scale 0-100
Outline: as §2

[17] = test system: ivyleaf morningglory (Ipomoea hederacea, IPOHE); assay: as above; details: 14 days after application, rating scale 0-100
Outline: as §2

[18] = test system: barnyardgrass (Echinochloa crusgalli, ECHCG); assay: as above; details: 14 days after application, rating scale 0-100
Outline: as §2

[19] = test system: common ragweed (Ambrosia artemisiifolia L., AMBEL); assay: as above; details: 14 days after application, rating scale 0-100
Outline: as §2

[20] = test system: lambsquarters (Chenopodium album, CHEAL); assay: as above; details: 14 days after application, rating scale 0-100
Outline: as §2

[21] = test system: redroot pigweed (Amaranthus retroflexus, AMARE); assay: as above; details: 14 days after application, rating scale 0-100
Outline: as §2

[22] = test system: Johnsongrass (Sorghum halepense, SORHA); assay: as above; details: 14 days after application, rating scale 0-100
Outline: as §2

[23] = test system: velvetleaf (Abutilon theophrasti, ABUTH); assay: as above; details: 14 days after application, rating scale 0-100
Outline: as §2

[24] = test system: large crabgrass (Digitaria sanguinalis, DIGSA); assay: as above; details: 14 days after application, rating scale 0-100
Outline: as §2

[25] = test system: common ragweed (Ambrosia artemisiifolia L., AMBEL); assay: Post-emerge greenhouse herbicide test, phytotoxicity rating; details: 14 days after application, scale 0-100
Outline: as §1

**Q.** O=c1n(-c2cc(Oc3ncc([N+](=O)[O-])s3)c(Cl)cc2F)c(=S)n2n1CCCC2 [Compound 8-36] was tested. Which “crop damage rating SOY” value ([1]; rate 63 g ai/ha) did it give?
**A.** The value was 30.

**Q.** And the “crop damage rating SOY” value ([1]; rate 250 g ai/ha)?
**A.** Its value is 90.

**Q.** And the “crop damage rating RICE” value ([2]; rate 63 g ai/ha)?
**A.** Its value is 40.

**Q.** What about the “crop damage rating RICE” value ([2]; rate 250 g ai/ha) of the same molecule?
**A.** The value was 30.

**Q.** What about the “crop damage rating CORN” value ([3]; rate 63 g ai/ha) of the same molecule?
**A.** Its value is 10.

**Q.** What about the “crop damage rating CORN” value ([3]; rate 250 g ai/ha) of the same molecule?
**A.** Its value is 10.

**Q.** What about the “RICE crop damage rating” value ([4]; Rate 125 g al/ha) of the same molecule?
**A.** Its value is 30.

**Q.** What about the “RICE crop damage rating” value ([4]; Rate 250 g al/ha) of the same molecule?
**A.** The value was 70.

**Q.** What about the “CORN crop damage rating” value ([5]; Rate 125 g al/ha) of the same molecule?
**A.** Its value is 0.

**Q.** And the “CORN crop damage rating” value ([5]; Rate 250 g al/ha)?
**A.** Its value is 20.

**Q.** What about the “phytotoxicity rating SETVI” value ([6]; rate 63 g ai/ha) of the same molecule?
**A.** Its value is 0.

**Q.** What about the “phytotoxicity rating SETVI” value ([6]; rate 250 g ai/ha) of the same molecule?
**A.** The value was 30.

**Q.** And the “phytotoxicity rating IPOHE” value ([7]; rate 63 g ai/ha)?
**A.** The value was 100.

**Q.** And the “phytotoxicity rating IPOHE” value ([7]; rate 250 g ai/ha)?
**A.** Its value is 95.

**Q.** What about the “phytotoxicity rating ECHCG” value ([8]; rate 63 g ai/ha) of the same molecule?
**A.** Its value is 50.

**Q.** What about the “phytotoxicity rating ECHCG” value ([8]; rate 250 g ai/ha) of the same molecule?
**A.** The value was 40.

**Q.** And the “phytotoxicity rating CHEAL” value ([9]; rate 63 g ai/ha)?
**A.** The value was 95.

**Q.** And the “phytotoxicity rating CHEAL” value ([9]; rate 250 g ai/ha)?
**A.** Its value is 99.

**Q.** And the “phytotoxicity rating AMARE” value ([10]; rate 63 g ai/ha)?
**A.** The value was 100.

**Q.** And the “phytotoxicity rating AMARE” value ([10]; rate 250 g ai/ha)?
**A.** Its value is 100.

**Q.** What about the “phytotoxicity rating SORHA” value ([11]; rate 63 g ai/ha) of the same molecule?
**A.** Its value is 30.

**Q.** What about the “phytotoxicity rating SORHA” value ([11]; rate 250 g ai/ha) of the same molecule?
**A.** The value was 90.

**Q.** What about the “phytotoxicity rating ABUTH” value ([12]; rate 63 g ai/ha) of the same molecule?
**A.** The value was 100.

**Q.** And the “phytotoxicity rating ABUTH” value ([12]; rate 250 g ai/ha)?
**A.** The value was 100.

**Q.** And the “phytotoxicity rating DIGSA” value ([13]; rate 63 g ai/ha)?
**A.** Its value is 30.

**Q.** What about the “phytotoxicity rating DIGSA” value ([13]; rate 250 g ai/ha) of the same molecule?
**A.** Its value is 60.

**Q.** What about the “SOY crop damage rating” value ([14]; Rate 125 g al/ha) of the same molecule?
**A.** Its value is 0.

**Q.** What about the “SOY crop damage rating” value ([14]; Rate 250 g al/ha) of the same molecule?
**A.** The value was 100.

**Q.** What about the SETVI phytotoxicity rating ([15]; Rate 125 g al/ha) of the same molecule?
**A.** The SETVI phytotoxicity rating was 80.

**Q.** What about the SETVI phytotoxicity rating ([15]; Rate 250 g al/ha) of the same molecule?
**A.** Its SETVI phytotoxicity rating is 99.

**Q.** And the CASOB phytotoxicity rating ([16]; Rate 125 g al/ha)?
**A.** Its CASOB phytotoxicity rating is 90.

**Q.** And the CASOB phytotoxicity rating ([16]; Rate 250 g al/ha)?
**A.** The CASOB phytotoxicity rating was 70.

**Q.** And the IPOHE phytotoxicity rating ([17]; Rate 125 g al/ha)?
**A.** The IPOHE phytotoxicity rating was 90.

**Q.** And the IPOHE phytotoxicity rating ([17]; Rate 250 g al/ha)?
**A.** Its IPOHE phytotoxicity rating is 70.

**Q.** And the ECHCG phytotoxicity rating ([18]; Rate 125 g al/ha)?
**A.** The ECHCG phytotoxicity rating was 0.

**Q.** And the ECHCG phytotoxicity rating ([18]; Rate 250 g al/ha)?
**A.** The ECHCG phytotoxicity rating was 70.

**Q.** And the AMBEL phytotoxicity rating ([19]; Rate 125 g al/ha)?
**A.** The AMBEL phytotoxicity rating was 90.

**Q.** And the AMBEL phytotoxicity rating ([19]; Rate 250 g al/ha)?
**A.** The AMBEL phytotoxicity rating was 100.

**Q.** And the CHEAL phytotoxicity rating ([20]; Rate 125 g al/ha)?
**A.** Its CHEAL phytotoxicity rating is 100.

**Q.** And the CHEAL phytotoxicity rating ([20]; Rate 250 g al/ha)?
**A.** Its CHEAL phytotoxicity rating is 100.

**Q.** What about the AMARE phytotoxicity rating ([21]; Rate 125 g al/ha) of the same molecule?
**A.** Its AMARE phytotoxicity rating is 100.

**Q.** What about the AMARE phytotoxicity rating ([21]; Rate 250 g al/ha) of the same molecule?
**A.** Its AMARE phytotoxicity rating is 100.

**Q.** And the SORHA phytotoxicity rating ([22]; Rate 125 g al/ha)?
**A.** Its SORHA phytotoxicity rating is 20.

**Q.** And the SORHA phytotoxicity rating ([22]; Rate 250 g al/ha)?
**A.** Its SORHA phytotoxicity rating is 50.

**Q.** What about the ABUTH phytotoxicity rating ([23]; Rate 125 g al/ha) of the same molecule?
**A.** The ABUTH phytotoxicity rating was 100.

**Q.** And the ABUTH phytotoxicity rating ([23]; Rate 250 g al/ha)?
**A.** Its ABUTH phytotoxicity rating is 100.

**Q.** And the DIGSA phytotoxicity rating ([24]; Rate 125 g al/ha)?
**A.** Its DIGSA phytotoxicity rating is 70.

**Q.** And the DIGSA phytotoxicity rating ([24]; Rate 250 g al/ha)?
**A.** Its DIGSA phytotoxicity rating is 80.

**Q.** What about the “phytotoxicity rating AMBEL” value ([25]; rate 63 g ai/ha) of the same molecule?
**A.** The value was 20.

**Q.** And the “phytotoxicity rating AMBEL” value ([25]; rate 250 g ai/ha)?
**A.** The value was 20.
